Literature values as cited in patent US20060116369A1, “Certain compounds, compositions, and methods” (priority 2004, published 2006).

system: A549 cells; settings: data provided by National Cancer Institute, Developmental Therapeutic Program

Compound	GI50 [nM]
CC(=O)O[C@H]1C(=O)[C@@]2(C)[C@H]([C@H](OC(=O)c3ccccc3)[C@]3(O)C[C@H](OC(=O)[C@H](O)[C@@H](NC(=O)c4ccccc4)c4ccccc4)C(C)=C1C3(C)C)[C@]1(OC(C)=O)CO[C@@H]1C[C@@H]2O [paclitaxel]	4
COc1cccc2c1C(=O)c1c(O)c3c(c(O)c1C2=O)C[C@@](O)(C(=O)CO)C[C@@H]3O[C@H]1C[C@H](N)[C@H](O)[C@H](C)O1 [doxorubicin]	63
O=c1[nH]cc(F)c(=O)[nH]1 [5-fluorouracil]	1000
NC(=O)NO [hydroxyurea]	500000
